The values below come from patent publication US20190322676A1, “CERAMIDE GALACTOSYLTRANSFERASE INHIBITORS FOR THE TREATMENT OF DISEASE” (BioMarin Pharmaceutical Inc., priority 2016, published 2019).

As a reminder, the IC50 is the midpoint of a concentration-inhibition curve. A low value points to greater potency in that assay.

Where only a bound is given, the exact number is not on record here.

The target of the test is T1, human CGT (ceramide galactosyltransferase), CHO/CGT lysate (Homo sapiens, UniProt Q16880).
T1 construct: Full-length human CGT cDNA was cloned into the BamH1/Xho1 site of pcDNA3.1 (+); expressed in transfected cells; host or cells: Chinese hamster ovary (CHO) cells; lysate prepared with M-PER
T1 sequence (Q16880 21-541): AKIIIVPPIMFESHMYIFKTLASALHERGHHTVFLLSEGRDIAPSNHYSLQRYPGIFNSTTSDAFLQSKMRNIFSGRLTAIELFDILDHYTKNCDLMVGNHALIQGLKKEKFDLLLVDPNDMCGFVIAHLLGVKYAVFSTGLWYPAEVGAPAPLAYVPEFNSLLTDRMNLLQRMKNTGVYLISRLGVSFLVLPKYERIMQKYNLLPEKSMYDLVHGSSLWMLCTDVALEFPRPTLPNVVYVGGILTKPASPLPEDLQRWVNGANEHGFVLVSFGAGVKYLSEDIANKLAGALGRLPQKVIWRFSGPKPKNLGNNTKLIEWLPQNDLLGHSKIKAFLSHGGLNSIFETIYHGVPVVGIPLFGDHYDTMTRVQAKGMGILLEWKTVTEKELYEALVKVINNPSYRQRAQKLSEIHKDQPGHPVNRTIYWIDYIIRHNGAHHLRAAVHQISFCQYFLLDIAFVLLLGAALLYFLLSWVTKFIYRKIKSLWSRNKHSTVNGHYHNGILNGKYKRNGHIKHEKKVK
Description: CGT enzyme assay, RapidFire/MS/MS readout (Table 1 ranges with one asterisk *). The class given is biochemical. Conditions: RapidFire method (range with one asterisk *). In a few lines:
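Lysate (4 μg) of CHO cells transfected with full-length human CGT incubated 1 h at 37 °C with compound (0.001–50 μM) in pH 7.2 HEPES buffer with 10 μM C6-NBD-dihydro-ceramide, 17.5 μM UDP-galactose, Mg2+/Mn2+, CHAPS, BSA, 0.5% DMSO; ** set also contained 0.01% Tween 80. Product quantified by RapidFire/MS/MS, normalized to internal standard; IC50 from sigmoidal variable-slope fits.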

`CCCCOc1cc(C(F)(F)[C@@H](NS(=O)(=O)c2ccc3cc(OC4CCCC4)ccc3c2)C(=O)N2CCC(N)CC2)ccc1Cl` [Compound 126-2, (S)—N-(3-(4-aminopiperidin-1-yl)-1-(3-butoxy-4-chlorophenyl)-1,1-difluoro-3-oxopropan-2-yl)-6-(cyclopentyloxy)naphthalene-2-sulfonamide]: the half-inhibitory concentration (IC50) was in the range of 1 to 10 µM.

`CCCCOc1cc(C(F)(F)[C@H](NS(=O)(=O)c2ccc(OCC3CCCCC3)cc2)C(=O)N2CCC(N)CC2)ccc1Cl` [Compound 127-1, (R)—N-(3-(4-aminopiperidin-1-yl)-1-(3-butoxy-4-chlorophenyl)-1,1-difluoro-3-oxopropan-2-yl)-4-(cyclohexylmethoxy)benzenesulfonamide] displayed an IC50 of less than 1 µM.

Compound `CCCCOc1cc(C(F)(F)[C@@H](NS(=O)(=O)c2ccc(OCC3CCCCC3)cc2)C(=O)N2CCC(N)CC2)ccc1Cl` [Compound 127-2, (S)—N-(3-(4-aminopiperidin-1-yl)-1-(3-butoxy-4-chlorophenyl)-1,1-difluoro-3-oxopropan-2-yl)-4-(cyclohexylmethoxy)benzenesulfonamide] yielded an IC50 of 1 to 10 µM.

`COc1cc(C(F)(F)[C@H](NS(=O)(=O)c2ccc(OCC3CCCCC3)cc2)C(=O)N2C3CCC2CC(N)C3)ccc1Br` (stereo partly drawn) [Compound 128-1, N-((2R)-3-(3-amino-8-azabicyclo[3.2.1]octan-8-yl)-1-(4-bromo-3-methoxyphenyl)-1,1-difluoro-3-oxopropan-2-yl)-4-(cyclohexylmethoxy) benzenesulfonamide] had an IC50 of less than 1 µM.

Consider `COc1cc(C(F)(F)[C@@H](NS(=O)(=O)c2ccc(OCC3CCCCC3)cc2)C(=O)N2C3CCC2CC(N)C3)ccc1Br` (stereo partly drawn) [Compound 128-2, N-((2S)-3-(3-amino-8-azabicyclo[3.2.1]octan-8-yl)-1-(4-bromo-3-methoxyphenyl)-1,1-difluoro-3-oxopropan-2-yl)-4-(cyclohexylmethoxy)benzenesulfonamide], for which the IC50 lay within 1 to 10 µM.

In the case of `COc1cc(C(F)(F)[C@H](NS(=O)(=O)c2ccc(OCC3CCCCC3)cc2)C(=O)N2CCC(N)CC2)ccc1Cl` [Compound 129-1, (R)—N-(3-(4-aminopiperidin-1-yl)-1-(4-chloro-3-methoxyphenyl)-1,1-difluoro-3-oxopropan-2-yl)-4-(cyclohexylmethoxy)benzenesulfonamide], the IC50 is 1 to 10 µM.

Compound `COc1cc(C(F)(F)[C@@H](NS(=O)(=O)c2ccc(OCC3CCCCC3)cc2)C(=O)N2CCC(N)CC2)ccc1Cl` [Compound 129-2, (S)—N-(3-(4-aminopiperidin-1-yl)-1-(4-chloro-3-methoxyphenyl)-1,1-difluoro-3-oxopropan-2-yl)-4-(cyclohexylmethoxy)benzenesulfonamide] displayed a half-maximal inhibitory concentration (IC50) of 10 to 30 µM.

Compound `NC1CC2CCC(C1)N2C(=O)[C@@H](NS(=O)(=O)c1ccc2cc(OC3CCCC3)ccc2c1)C(F)(F)c1ccc(Cl)s1` (stereo partly drawn) [Compound 130-1, N-((2R)-3-(3-amino-8-azabicyclo[3.2.1]octan-8-yl)-1-(5-chlorothiophen-2-yl)-1,1-difluoro-3-oxopropan-2-yl)-6-(cyclopentyloxy)naphthalene-2-sulfonamide] had an IC50 of 1 to 10 µM.

As to `NC1CC2CCC(C1)N2C(=O)[C@H](NS(=O)(=O)c1ccc2cc(OC3CCCC3)ccc2c1)C(F)(F)c1ccc(Cl)s1` (stereo partly drawn) [Compound 130-2, N-((2S)-3-(3-amino-8-azabicyclo[3.2.1]octan-8-yl)-1-(5-chlorothiophen-2-yl)-1,1-difluoro-3-oxopropan-2-yl)-6-(cyclopentyloxy)naphthalene-2-sulfonamide], the IC50 was 10 to 30 µM.

`NC1CCN(C(=O)[C@@H](NS(=O)(=O)c2ccc3cc(OC4CCCC4)ccc3c2)C(F)(F)c2ccc(Cl)s2)CC1` [Compound 131-1, (R)—N-(3-(4-aminopiperidin-1-yl)-1-(5-chlorothiophen-2-yl)-1,1-difluoro-3-oxopropan-2-yl)-6-(cyclopentyloxy)naphthalene-2-sulfonamide] had an IC50 of 1 to 10 µM.
